In patent US12448367B2, “Phthalazine derivatives as pyruvate kinase modulators” (Sitryx Therapeutics Limited, priority 2022, dated 2025):
Several values for one entry are separate records, joined by “and”; a condition that tells them apart may be missing. Equal values may be shown once.

Assays:
[1] = target: T1, pyruvate kinase in human CD4+ T cell lysates (Homo sapiens, UniProt P14618); assay: CD4+ T cell pyruvate kinase assay (PK activity in lysates of compound-treated cells); type: cell-based; details: primary human CD4+ T cells incubated with compound 20 minutes, washed, lysed; ΔAbsorbance OD570 nm
T1 construct: endogenous in cells; host or cells: primary human CD4+ T cells
Description: Measuring Pyruvate Kinase (PK) Activity in Human CD4+ T Cell Lysates
Compound activation of pyruvate kinase in human CD4+ T cell lysates was determined by biochemical assay. Primary CD4+ T cells were used rather than cancer cell lines to improve the disease relevance of the assay. The PK assay was sourced from Abcam. All other reagents were sourced from ThermoFisher. Test compounds were prepared as 10 mM DMSO stocks and dilution series prepared in DMSO for addition to intact CD4+ T cells cultured in RPMI media containing 10% FBS.
Human CD4+ T cells were incubated with compound for 20 minutes and then washed twice in 1×PBS before resuspension in Abcam PK lysis buffer to prepare cell lysates. 10 μl PK assay Reaction Mix was added per well, including OXIRED™ PROBE. The plates were read using a BMG Labtech Pherastar plate reader at OD570 nm in kinetic mode for […] (25 cycles of 2 minutes) at 25° C., protecting from light.
Plates were blank-subtracted and ΔAbsorbance calculated by subtracting the first plate read within the linear range from the plate read at the timepoint of interest. PK activity is expressed as ΔAbsorbance and plotted against log [Compound].

recombinant human PKLR = target: T2, recombinant human PKLR (Homo sapiens, UniProt P30613); assay: Human PKLR activation assay (Kinase-Glo Plus luminescence, ATP generated); type: biochemical; details: * = repeat experiments; for EC50: activation of N-terminal His-tagged hPKLR, 4-parameter logistic fit; for Emax: read-out: hPKLR Emax
T2 construct: His (N); purchased R&D Systems
Description: Biological Example 2—Human PKLR Activation Assay
Measuring In Vitro Activation of Recombinant Human PKLR
(§1) Compound activation of recombinant human PKLR pyruvate kinase activity was determined by biochemical assay. N-terminal His-tagged enzyme was sourced from R&D Systems and its substrates phosphoenolpyruvate (PEP) and ADP from Sigma-Aldrich and 2Bscientific Ltd, respectively. The Kinase-Glo® Plus luminescence assay was from Promega. All other reagents were from Sigma-Aldrich. Test Compounds were prepared as 10 mM DMSO stocks and dilution series prepared in DMSO for direct dilution into Assay Buffer comprising 50 mM imidazole, 50 mM KCl, 7 mM MgCl2, 0.01% Tween20, 0.05% BSA (pH 7.2).
Human PKLR was diluted into Assay Buffer to a final concentration of 5 μM. Enzyme-Assay Buffer mix was dispensed into 384-well shallow-well white-walled plates and Test Compounds added by acoustic dispense (Echo®, Labcyte Inc). Following 10 minutes' incubation at room temperature, the enzyme reaction was initiated by acoustic dispensing of ADP+PEP substrate to final concentrations of 254 μM ADP and 53 μM […].
(§2) After 60 minutes' incubation on an orbital shaker (300 rpm, 26° C.), enzyme activity was quantified by the luminescent detection of generated ATP. Kinase-Glo® Plus reagent was added to each well and the plates incubated for a further 15 minutes on an orbital shaker in the dark (300 rpm, 26° C.) before luminescence measurement on a plate reader (PHERAstar® FSX, BMG Labtech).
(§3) Percentage activation was calculated by normalising […] signals to plate LOW (DMSO vehicle) and HIGH (5 μM TEPP-46) controls. EC50 and Emax values were determined from 4-parameter logistic fits of compound concentration-response curves.

recombinant human PKM2 = target: T3, recombinant human PKM2 (Homo sapiens, UniProt P14618); assay: Human PKM2 activation assay (Kinase-Glo Plus luminescence, ATP generated); type: biochemical; details: * = repeat experiments; for EC50: activation of N-terminal His-tagged hPKM2, 4-parameter logistic fit; for Emax: read-out: hPKM2 Emax
T3 construct: His (N); purchased R&D Systems
Description: Measuring In Vitro Activation of Recombinant Human PKM2
as §1, with “PKM2” for “PKLR”, “hPKM2” for “enzyme”
Human PKM2 was diluted into Assay Buffer comprising 50 mM imidazole, 50 mM KCl, 7 mM MgCl2, 0.01% Tween20, 0.05% BSA (pH 7.2) to a final concentration of […]. Enzyme-Assay Buffer mix was dispensed into a 384-well shallow-well white-walled plate (PerkinElmer) and Test Compounds added by acoustic dispense (Echo®, Labcyte Inc.).
as §2, §3

[2] = percentage activation normalised to DMSO (LOW) and 5 μM TEPP-46 (HIGH)

T1 sequence (P14618 2-531 limits assumed): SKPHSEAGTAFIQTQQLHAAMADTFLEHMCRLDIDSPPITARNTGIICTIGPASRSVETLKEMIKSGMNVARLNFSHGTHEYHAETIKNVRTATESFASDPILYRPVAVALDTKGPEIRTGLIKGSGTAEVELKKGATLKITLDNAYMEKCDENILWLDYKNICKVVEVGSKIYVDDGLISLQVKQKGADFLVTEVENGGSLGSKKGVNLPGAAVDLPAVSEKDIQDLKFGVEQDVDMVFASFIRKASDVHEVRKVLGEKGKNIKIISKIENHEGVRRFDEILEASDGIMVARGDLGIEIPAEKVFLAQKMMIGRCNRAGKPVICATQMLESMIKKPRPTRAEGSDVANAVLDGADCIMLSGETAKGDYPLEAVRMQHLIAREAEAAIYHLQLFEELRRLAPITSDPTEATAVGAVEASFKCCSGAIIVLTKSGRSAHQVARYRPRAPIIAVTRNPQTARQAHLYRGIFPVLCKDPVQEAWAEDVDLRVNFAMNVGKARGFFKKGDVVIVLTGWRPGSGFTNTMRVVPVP
T3 sequence (P14618 whole entry): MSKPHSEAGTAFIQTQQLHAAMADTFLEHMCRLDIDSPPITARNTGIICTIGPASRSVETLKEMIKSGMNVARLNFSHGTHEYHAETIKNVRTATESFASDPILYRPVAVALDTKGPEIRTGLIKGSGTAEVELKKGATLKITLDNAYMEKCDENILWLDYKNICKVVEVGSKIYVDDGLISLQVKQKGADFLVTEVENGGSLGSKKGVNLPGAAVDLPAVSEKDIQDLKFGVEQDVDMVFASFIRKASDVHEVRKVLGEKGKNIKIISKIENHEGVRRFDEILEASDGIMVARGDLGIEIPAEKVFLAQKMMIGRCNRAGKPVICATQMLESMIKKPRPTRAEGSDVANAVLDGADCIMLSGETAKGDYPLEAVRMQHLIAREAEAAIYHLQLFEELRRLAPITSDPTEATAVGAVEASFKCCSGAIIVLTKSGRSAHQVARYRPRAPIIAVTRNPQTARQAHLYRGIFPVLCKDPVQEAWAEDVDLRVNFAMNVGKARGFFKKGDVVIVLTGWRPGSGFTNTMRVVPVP
T2 sequence (P30613 whole entry): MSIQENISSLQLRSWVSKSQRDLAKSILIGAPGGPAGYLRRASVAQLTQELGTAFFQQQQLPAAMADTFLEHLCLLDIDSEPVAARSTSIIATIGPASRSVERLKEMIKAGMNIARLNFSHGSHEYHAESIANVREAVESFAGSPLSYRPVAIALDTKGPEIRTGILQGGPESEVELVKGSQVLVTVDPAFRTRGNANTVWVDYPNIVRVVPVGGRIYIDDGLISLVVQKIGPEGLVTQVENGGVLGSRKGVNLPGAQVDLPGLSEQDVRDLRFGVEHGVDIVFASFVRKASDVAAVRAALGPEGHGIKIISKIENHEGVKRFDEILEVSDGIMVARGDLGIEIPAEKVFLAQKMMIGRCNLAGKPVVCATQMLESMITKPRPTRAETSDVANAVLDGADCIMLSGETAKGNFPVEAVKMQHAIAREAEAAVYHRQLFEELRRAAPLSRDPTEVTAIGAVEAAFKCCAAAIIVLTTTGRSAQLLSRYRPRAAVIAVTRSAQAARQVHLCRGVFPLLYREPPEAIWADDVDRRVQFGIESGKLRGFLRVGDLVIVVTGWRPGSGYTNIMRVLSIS

Compound	EC50 [1] [nM]	EC50 (recombinant human PKLR)	Emax (recombinant human PKLR; [2]) [%]	EC50 (recombinant human PKM2)	Emax (recombinant human PKM2; [2]) [%]	hPKLR Emax (recombinant human PKLR; [2])	hPKM2 Emax (recombinant human PKM2; [2])
O=c1c2ccc(S(=O)(=O)c3cnn(CCO)c3)cc2cnn1Cc1ccc2c(n1)CCO2 [Example 3, 2-((2,3-dihydrofuro[3,2-b]pyridin-5-yl)methyl)-6-((1-(2-hydroxyethyl)-1H-pyrazol-4-yl)sulfonyl)phthalazin-1(2H)-one]	70	6.6 nM	118	50 nM	108		
COc1ccc(Cn2ncc3cc(S(=O)(=O)c4cn[nH]c4)ccc3c2=O)nc1 [Example 1, 6-((1H-pyrazol-4-yl)sulfonyl)-2-((5-methoxypyridin-2-yl)methyl)phthalazin-1(2H)-one]	97	16 nM	119	114 nM	111		
O=c1c2ccc(S(=O)(=O)c3cnn(C(F)F)c3)cc2cnn1Cc1cc[nH]n1 [Example 2, 2-((1H-pyrazol-3-yl)methyl)-6-((1-(difluoromethyl)-1H-pyrazol-4-yl)sulfonyl)phthalazin-1(2H)-one]	168	33.1 nM	123	104 nM	100		
Cc1[nH]nc(Cn2ncc3cc(S(=O)(=O)c4cc[nH]n4)ccc3c2=O)c1Cl [Example 6, 6-((1H-pyrazol-3-yl)sulfonyl)-2-((4-chloro-5-methyl-1H-pyrazol-3-yl)methyl)phthalazin-1(2H)-one]	94			43 nM	94		
O=c1c2ccc(S(=O)(=O)c3cn[nH]c3)cc2cnn1Cc1cc2n(n1)CCO2 [Example 4, 6-((1H-pyrazol-4-yl)sulfonyl)-2-((2,3-dihydropyrazolo[5,1-b]oxazol-6-yl)methyl)phthalazin-1(2H)-one]	125	6.4 nM	122	51 nM	91		
Cn1cc(S(=O)(=O)c2ccc3c(=O)n(Cc4cc5n(n4)CCO5)ncc3c2)cn1 [Example 5, 2-((2,3-dihydropyrazolo[5,1-b]oxazol-6-yl)methyl)-6-((1-methyl-1H-pyrazol-4-yl)sulfonyl)phthalazin-1(2H)-one]	93	23.3 nM and 27.6 nM	121	98.9 nM and 207 nM	110	128* %	104* %
